Publication doi:10.1101/2023.04.22.537907v1 (biorxiv, 2023)

Biological target: PcVHA-a (vacuolar H+-ATPase subunit a; Pc106526)
Test: microscale thermophoresis with lysate of mCherry-fusion transformants
Format: binding, Phytophthora capsici
Details: 25 °C; 20% MST power; total protein lysate; mCherry-only control

Kd: 17.9 µM
SMILES: O=C(NCc1ncc(C(F)(F)F)cc1Cl)c1c(Cl)cccc1Cl [fluopicolide]
